Patent publication US8119635B2, “Diazabicyclic central nervous system active agents” (Abbott Laboratories, priority 2000, dated 2012)
pKi: −log10 of the molar value. Structures can show the parent of a compound that is named as a salt. Where two headings read alike, the source gives them in different places.

Experiments:
[1] = target: T1, neuronal nicotinic acetylcholine receptors (Rattus norvegicus, UniProt P09483+P12390); assay: Binding of [3H]-cytisine to neuronal nicotinic acetylcholine receptors, crude synaptic membranes from whole rat brain
T1 construct: crude synaptic membrane preparations from whole rat brain; from tissue; host or cells: whole rat brain, crude synaptic membranes
T1 sequence (P09483 31-630): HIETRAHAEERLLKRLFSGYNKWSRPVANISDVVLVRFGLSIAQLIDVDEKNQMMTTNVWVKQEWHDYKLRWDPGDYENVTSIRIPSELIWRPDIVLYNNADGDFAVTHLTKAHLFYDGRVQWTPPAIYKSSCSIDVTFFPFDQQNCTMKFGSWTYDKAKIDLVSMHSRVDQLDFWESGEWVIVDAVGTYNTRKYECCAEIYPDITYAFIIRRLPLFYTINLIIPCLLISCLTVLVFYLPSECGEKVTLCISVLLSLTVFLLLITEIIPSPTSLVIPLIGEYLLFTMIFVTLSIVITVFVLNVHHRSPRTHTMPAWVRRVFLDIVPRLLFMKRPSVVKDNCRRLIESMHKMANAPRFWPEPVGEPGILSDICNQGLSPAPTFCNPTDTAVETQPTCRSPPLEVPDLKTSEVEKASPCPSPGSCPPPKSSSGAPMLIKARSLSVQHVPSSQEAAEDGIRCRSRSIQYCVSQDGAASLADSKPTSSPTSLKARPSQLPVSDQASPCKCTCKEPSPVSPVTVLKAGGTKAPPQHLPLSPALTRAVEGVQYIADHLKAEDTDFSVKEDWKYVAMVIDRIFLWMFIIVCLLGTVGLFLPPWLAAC
T1 sequence (P12390 25-500): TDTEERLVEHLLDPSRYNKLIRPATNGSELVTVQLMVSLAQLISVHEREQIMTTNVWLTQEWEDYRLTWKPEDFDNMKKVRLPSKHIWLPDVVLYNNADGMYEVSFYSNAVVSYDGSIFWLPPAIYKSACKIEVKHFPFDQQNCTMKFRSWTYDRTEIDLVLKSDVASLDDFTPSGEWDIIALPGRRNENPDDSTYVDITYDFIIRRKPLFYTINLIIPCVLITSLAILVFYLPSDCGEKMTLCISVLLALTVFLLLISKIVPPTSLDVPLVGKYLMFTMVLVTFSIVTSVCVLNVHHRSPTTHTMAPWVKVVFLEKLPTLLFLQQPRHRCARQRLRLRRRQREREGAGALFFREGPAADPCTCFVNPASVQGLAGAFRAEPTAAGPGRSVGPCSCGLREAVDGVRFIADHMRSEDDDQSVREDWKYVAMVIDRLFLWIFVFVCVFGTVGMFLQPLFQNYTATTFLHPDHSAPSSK
Experimental: The In Vitro protocols for determination of nicotinic acetylcholine channel receptor binding potencies of ligands were determined as follows.
Washed membranes were stored at −80° C. prior to use. Frozen aliquots were slowly thawed and resuspended in 20 volumes of buffer (containing: 120 mM NaCl, 5 mM KCl, 2 mM MgCl2, 2 mM CaCl2 and 50 mM Tris-Cl, pH 7.4 @[…]). After centrifuging at 20,000×g for 15 minutes, the pellets were resuspended in 30 volumes of buffer.
The test compounds were dissolved in water to make 10 mM stock solutions. Each solution was then diluted (1:100) with buffer (as above) and further taken through seven serial log dilutions to produce test solutions from 10^−5 to 10^−11 M.
Samples were incubated for 60 minutes at 4° C., then rapidly filtered through Whatman GF/B filters presoaked in 0.5% polyethyleneimine using 3×4 mL of ice-cold buffer. The filters are counted in 4 mL of Ecolume® (ICN). Nonspecific binding was determined in the presence of 10 μM (−)-nicotine and values were expressed as a percentage of total binding. IC50 values were determined with the RS-1 (BBN) nonlinear least squares curve-fitting program and IC50 values were converted to Ki values using the Cheng and Prusoff correction (Ki=IC50/(1+[ligand]/Kd of ligand).

mice = assay: Mouse hot plate paradigm (analgesia); format: in vivo; conditions: ip, 0.5 h, intraperitoneal, dosed 30 minutes prior to testing, hot plate 55° C., latency until the tenth jump, read-out: (MED) minimally effective dose, mouse hot plate
Experimental: An in vivo protocol was utilized to determine the effectiveness of nicotinic acetylcholine receptor ligands as analgesic agents in the mouse hot plate paradigm.
Separate groups of mice, (n=8/group) were utilized for each dose group. All drugs were administered by the intraperitoneal route of administration. Test drugs were dissolved in water to make a 6.2 mM stock solution. Animals were dosed with this solution (10 mL/kg body weight) for a 62 micromol/kg dose. Lower doses were administered similarly, following serial dilution of the stock solution in half-log increments. Animals were dosed 30 minutes prior to testing in the hot plate. The hot-plate utilized was an automated analgesia monitor (Model #AHP16AN, Omnitech Electronics, Inc. of Columbus, Ohio). The temperature of the hot plate was maintained at 55° C. and a cut-off time of 180 seconds was utilized. Latency until the tenth jump was recorded as the dependent measure. An increase in the tenth jump latency relative to the control was considered an effect.

Male Sprague-Dawley rats = assay: Formalin test (analgesia); format: in vivo; conditions: Rattus norvegicus, ip, intraperitoneally 5 minutes before injection of 50 μL 5% formalin into rear paw, nocifensive behaviors, read-out: (MED) minimally effective dose, formalin test
Experimental: Another in vivo protocol utilized to determine the effectiveness of nicotinic acetylcholine receptor ligands as analgesic agents was the formalin test.
Male Sprague-Dawley rats (Charles River, Portage, Mich.) weighing 200 to 400 grams were used for all experiments. After a 20 minute period of acclimation to individual cages, 50 μL of a 5% formalin solution was injected subcutaneous into the dorsal aspect of one of the rear paws and the rats were then returned to the clear observation cages suspended above mirror panels. […] Phase 1 of the formalin test was defined as the period of time immediately after injection of formalin until 10 minutes after the formalin injection (i.e., 0-10 minutes after formalin). Phase 2 was defined as the 20 minute period from 30 to 50 minutes after formalin injection. The investigator recorded nocifensive behaviors in the injected paw of four animals during the session by observing each animal for one 15 second observation period during each 1 minute interval. Nocifensive behaviors recorded included flinching, licking or biting the injected paw. In dose-response studies, the test compound (or saline) was administered intraperitoneally 5 minutes before injection of formalin.

Compound | pKi [1] | melting point | minimal effective dose (mice) | minimal effective dose (Male Sprague-Dawley rats) | pKi ([1]; [3H]-CYT 1.25 nM, whole rat brain membranes, 60 minutes at 4° C., IC50 converted to Ki by Cheng and Prusoff correction, read-out: Average Ki)
Cl.Cl.FC(F)(F)COc1cncc(N2C[C@H]3CNC[C@H]3C2)c1 [Example 12, cis-2-[5-(2,2,2-trifluoroethoxy)-3-pyridinyl]octahydropyrrolo[3,4-c]pyrrole dihydrochloride] | 10.30 | 233 to 234 °C (dec.) | 62 µmol/kg | – | –
COc1cncc(N2C[C@H]3CCN[C@H]3C2)c1 [Example 29, (3aR,6aR)-5-(5-methoxy-3-pyridinyl)octahydropyrrolo[3,4-b]pyrrole dihydrochloride] | 9.46 | – | 19 µmol/kg | 6.2 µmol/kg | –
Cl.Cl.c1ccc2ncc(N3C[C@H]4CNC[C@H]4C3)cc2c1 [Example 5, cis-2-(3-quinolinyl)octahydropyrrolo[3,4-c]pyrrole dihydrochloride] | 8.77 | > 260 °C | – | – | –
Clc1ccc(N2C[C@@H]3CCN[C@@H]3C2)cn1 [Example 15, (3aS,6aS)-5-(6-chloro-3-pyridinyl)octahydropyrrolo[3,4-b]pyrrole dihydrochloride] | 8.20 | – | 19 µmol/kg | > 6.2 µmol/kg | –
Cl.Cl.c1cncc(N2C[C@H]3CNC[C@H]3C2)c1 [Example 1, cis-2-(3-pyridinyl)octahydropyrrolo[3,4-c]pyrrole dihydrochloride] | 9.92 | 250 to 252 °C (dec.) | 19 µmol/kg | 0.62 µmol/kg | –
Cc1cc(N2C[C@H]3CCN[C@H]3C2)cnc1Cl [Example 27, (3aR,6aR)-5-(6-chloro-5-methyl-3-pyridinyl)octahydropyrrolo[3,4-b]pyrrole hydrochloride] | 10.00 | – | 1.9 µmol/kg | – | –
c1cncc(N2CC[C@H]3CN[C@H]3C2)c1 (relative stereo) [Example 33, (cis)-3-(3-pyridinyl)-3,8-diazabicyclo[4.2.0]octane tris(4-methylbenzenesulfonate)] | 10.70 | – | 1.9 µmol/kg | 0.62 µmol/kg | –
Cc1cc(N2C[C@@H]3CCN[C@@H]3C2)cnc1Cl [Example 26, (3aS,6aS)-5-(6-chloro-5-methyl-3-pyridinyl)octahydropyrrolo[3,4-b]pyrrole hydrochloride] | 9.21 | – | 19 µmol/kg | – | –
c1cncc(N2C[C@H]3CCN[C@H]3C2)c1 [Example 28, (3aR,6aR)-5-(3-pyridinyl)octahydropyrrolo[3,4-b]pyrrole dihydrochloride] | – | – | 6.2 µmol/kg | 1.9 µmol/kg | 9.47
Clc1ccc(N2C[C@H]3CCCN[C@H]3C2)cn1 (relative stereo) [Example 22, cis-6-(6-chloro-3-pyridinyl)octahydro-1H-pyrrolo[3,4-b]pyridine dihydrochloride] | 7.96 | – | 19 µmol/kg | 1.9 µmol/kg | –
CCCOc1cncc(N2C[C@H]3CNC[C@H]3C2)c1 [Example 9, cis-2-(5-propoxy-3-pyridinyl)octahydropyrrolo[3,4-c]pyrrole semi(fumarate)] | 10.40 | – | 19 µmol/kg | – | –
COc1cc(N2C[C@H]3CNC[C@H]3C2)cnc1Cl [Example 10, cis-2-(6-chloro-5-methoxy-3-pyridinyl)octahydropyrrolo[3,4-c]pyrrole dihydrochloride] | 10.52 | – | 6.2 µmol/kg | 1.9 µmol/kg | –
CN1C[C@@H]2CN(c3cccnc3)C[C@@H]2C1.Cl [Example 2, cis-2-methyl-5-(3-pyridinyl)octahydropyrrolo[3,4-c]pyrrole hydrochloride] | 7.59 | 207 to 209 °C | – | – | –
Cl.Clc1ccc(N2C[C@H]3CNC[C@H]3C2)cn1 [Example 3, cis-2-(6-chloro-3-pyridinyl)octahydropyrrolo[3,4-c]pyrrole hydrochloride] | 9.70 | 230 to 236 °C (dec.) | 6.2 µmol/kg | – | –
Clc1ccc(N2C[C@H]3CCN[C@H]3C2)cn1 (relative stereo) [Example 13, cis-5-(6-chloro-3-pyridinyl)octahydropyrrolo[3,4-b]pyrrole hydrochloride] | 8.82 | – | 6.2 µmol/kg | 0.62 µmol/kg | –
CCOc1cncc(N2C[C@H]3CNC[C@H]3C2)c1 [Example 8, cis-2-(5-ethoxy-3-pyridinyl)octahydropyrrolo[3,4-c]pyrrole dihydrochloride] | 10.40 | 226 to 227 °C | 6.2 µmol/kg | – | –
COc1cncc(N2C[C@H]3CNC[C@H]3C2)c1 [Example 7, cis-2-(5-methoxy-3-pyridinyl)octahydropyrrolo[3,4-c]pyrrole dihydrochloride] | 10.10 | – | 19 µmol/kg | 6.2 µmol/kg | –
c1cncc(N2C[C@H]3CCCN[C@H]3C2)c1 (relative stereo) [Example 23, cis-6-(3-pyridinyl)octahydro-1H-pyrrolo[3,4-b]pyridine dihydrochloride] | 8.39 | – | 62 µmol/kg | 0.62 µmol/kg | –
Cc1cc(N2C[C@H]3CNC[C@H]3C2)cnc1Cl [Example 11, cis-2-(6-chloro-5-methyl-3-pyridinyl)octahydropyrrolo[3,4-c]pyrrole dihydrochloride] | 10.40 | – | 6.2 µmol/kg | – | –
Clc1cc(N2C[C@H]3CCN[C@H]3C2)cnc1Cl [Example 24, (3aR,6aR)-5-(5,6-dichloro-3-pyridinyl)octahydropyrrolo[3,4-b]pyrrole hydrochloride] | 9.80 | – | 6.2 µmol/kg | 6.2 µmol/kg | –
Clc1ccc(N2C[C@H]3CCN[C@H]3C2)cn1 [Example 14, (3aR,6aR)-5-(6-chloro-3-pyridinyl)octahydropyrrolo[3,4-b]pyrrole dihydrochloride] | 8.96 | – | 1.9 µmol/kg | 0.62 µmol/kg | –
